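In this assay, cells in 96-well plates receive the compound at five concentrations for 48 hours. Endpoints are linearly interpolated between the surrounding concentrations. At the GI50, growth is halved.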 Activity calls are given as the source filed them. Cut-off read from the data, not from the text of the source: active = GI50 up to about 1.1 µM and inactive = higher.

Common to all, as to test: NCI-60 cell line screen, 48 h
Assay [1] deals with K562.
Assay [2] deals with NCI-H226.
Assay [3] has as its system SF-295.
For assay [4], the system named is SF-539.
Assay [5] concerns HCT-15.
Assay [6] deals with COLO 205.
The test system of assay [7] is T47D.
The subject of assay [8] is HCC 2998.
Assay [9] deals with MDA-MB-231.
Assay [10] relates to RPMI-8226.
The test system of assay [11] is MDA-MB-435.
The test system of assay [12] is SW-620.
Assay [13] concerns OVCAR-5.
Assay [14] deals with HCT-116.
Assay [15] deals with LOX IMVI.
In assay [16] the test system is OVCAR-3.
For assay [17], the system named is MOLT-4.
Assay [18] relates to ACHN.
Assay [19] concerns NCI-H460.
Assay [20] has as its system M14.

Regarding `O=c1c(SSc2coc3cc(F)ccc3c2=O)coc2cc(F)ccc12`, the GI50 in assay [1] is 19.9 µM (inactive); in assay [2], > 100 µM (inactive); in [3], 6.68 µM (inactive); in [4], 28.7 µM (inactive); in assay [5] it was 13.8 µM; in assay [6], 17.4 µM (inactive). Moreover, the GI50 was 20.7 µM (inactive) in assay [7]; 16.1 µM (inactive) in assay [8]; 11.5 µM (inactive) in assay [9]; 22.3 µM (inactive) in [10]; 11.1 µM (inactive) in assay [11]; 17.7 µM (inactive) in [12]. The GI50 in assay [13] is 37.8 µM (inactive); in assay [14], 5.14 µM (inactive); in [15], 2.65 µM (inactive); in assay [16], 21.6 µM (inactive); in [17] it was 7.31 µM (inactive); in assay [18] it was 6.92 µM (inactive). Also, the GI50 in assay [19] was 4.43 µM (inactive).

For the compound `CC(C)(/N=N/C(C)(C)C1=NCCN1)C1=NCCN1`, the GI50 is > 56.5 µM (inactive) in assay [1]; > 100 µM (inactive) in assay [2]; > 100 µM (inactive) in assay [3]; > 67.1 µM (inactive) in assay [4]; greater than 100 µM in assay [5]; > 100 µM (inactive) in assay [6]. Moreover, the GI50 is 76.6 µM (inactive) in [7]; > 100 µM (inactive) in [8]; > 100 µM (inactive) in [9]; > 100 µM (inactive) in assay [11]; > 100 µM (inactive) in assay [12]; > 100 µM (inactive) in assay [13]. Besides, the GI50 in [14] is > 100 µM (inactive); in assay [15], > 66.1 µM (inactive); in assay [16], > 100 µM (inactive); in [17], > 100 µM (inactive); in assay [18] it was > 100 µM (inactive); in assay [20], > 85.9 µM (inactive). For the same compound, in assay [19], the GI50 is > 100 µM (inactive).

Regarding `O=C1C(Cl)=C(Oc2ccc([N+](=O)[O-])cc2)C(=O)c2c(O)ccc(O)c21`, the GI50 in assay [1] was 13.3 µM (inactive); in assay [2] it was > 100 µM (inactive); in assay [3], > 100 µM (inactive); in assay [4] it was > 100 µM (inactive); in [5] it was 25.6 µM; in assay [6] it was 19.9 µM (inactive). Also, the GI50 in assay [7] was 29.9 µM (inactive); in [8] it was > 100 µM (inactive); in [9], 28.4 µM (inactive); in assay [10] it was 21 µM (inactive); in assay [11] it was > 47.5 µM (inactive); in assay [12], 30.2 µM (inactive). For the same compound, the GI50 in [13] was > 100 µM (inactive); in assay [14], 49.3 µM (inactive); in [16] it was 33.6 µM (inactive); in assay [17], 5.85 µM (inactive); in assay [18], 54.2 µM (inactive); in assay [20], > 47.8 µM (inactive). Further, the GI50 in assay [19] is > 100 µM (inactive).

Take `C/C=C/[C@H](O[Si](C)(C)C(C)(C)C)[C@@H](O)/C=C/C(=O)OCC`: the GI50 in [1] was 21.7 µM (inactive); in assay [2], 29.4 µM (inactive); in assay [3], 20.9 µM (inactive); in [4], 23.9 µM (inactive); in assay [5], 14.4 µM; in assay [6], 20.1 µM (inactive). Also, the GI50 in [7] is 30.4 µM (inactive); in assay [8], 16.4 µM (inactive); in assay [9] it was 25.8 µM (inactive); in assay [10], 2.04 µM (inactive); in assay [11] it was 19.5 µM (inactive); in assay [12], 19.3 µM (inactive). For the same compound, the GI50 in [13] was 31.1 µM (inactive); in [14], 17.9 µM (inactive); in assay [15], 17.5 µM (inactive); in assay [16] it was 19.6 µM (inactive); in assay [17], 18.6 µM (inactive); in [18] it was 16.6 µM (inactive). Further, the GI50 in [19] was 15.9 µM (inactive).

`Cn1c(=O)c2c(nc3n(Cc4ccccc4)c(=O)c(NCCCBr)cn23)n(C)c1=O`: the GI50 was > 100 µM (inactive) in assay [1]; 31.5 µM (inactive) in assay [2]; 31.8 µM (inactive) in assay [3]; greater than 100 µM in assay [5]; > 100 µM (inactive) in assay [6]; > 100 µM (inactive) in assay [7]. The GI50 in assay [8] was > 100 µM (inactive); in [9] it was 64.9 µM (inactive); in assay [10], > 100 µM (inactive); in assay [11] it was > 100 µM (inactive); in [12] it was > 100 µM (inactive); in assay [13], > 100 µM (inactive). In addition, the GI50 is 54 µM (inactive) in [14]; 99.1 µM (inactive) in assay [15]; > 100 µM (inactive) in assay [16]; 19.2 µM (inactive) in [17]; 32.6 µM (inactive) in [18]; > 100 µM (inactive) in assay [20]. In addition, the GI50 in assay [19] was > 100 µM (inactive).

Take `N#Cc1c(-c2ccc([N+](=O)[O-])cc2)cc(-c2ccc(Nc3ccnc4cc(C(F)(F)F)ccc34)cc2)[nH]c1=O`: the GI50 in [1] is > 100 µM (inactive); in assay [2], > 100 µM (inactive); in [3], > 100 µM (inactive); in [4], > 100 µM (inactive); in [5], greater than 100 µM; in assay [6] it was 12.2 µM (inactive). Besides, the GI50 in assay [7] was > 100 µM (inactive); in assay [8], > 100 µM (inactive); in assay [9], 16.3 µM (inactive); in [10], > 100 µM (inactive); in assay [11], > 100 µM (inactive); in assay [12], > 100 µM (inactive). Besides, the GI50 in [13] was 21.4 µM (inactive); in [14], 22.2 µM (inactive); in assay [15], > 100 µM (inactive); in assay [17], > 100 µM (inactive); in assay [18], > 100 µM (inactive); in assay [20], 80.9 µM (inactive). The GI50 in assay [19] was > 100 µM (inactive).

In the case of `Cc1cc(Cl)ccc1C(=O)c1ccc2ccccc2c1C(=O)O`, the GI50 in [1] was > 100 µM (inactive); in [2], > 100 µM (inactive); in assay [3], 98.9 µM (inactive); in assay [4], > 100 µM (inactive); in assay [5] it was greater than 100 µM; in assay [6] it was > 100 µM (inactive). Further, the GI50 in [7] was > 100 µM (inactive); in assay [8] it was 71.6 µM (inactive); in assay [9], > 100 µM (inactive); in assay [10], > 100 µM (inactive); in assay [11], > 100 µM (inactive); in assay [12] it was > 100 µM (inactive). In addition, the GI50 in assay [13], in assay [14], in [16], in [17], in assay [18] and in assay [20] was > 100 µM (inactive) in each case. In assay [19], the GI50 was > 100 µM (inactive).

For the compound `CC(=O)OCC1OC(SC2=N/C(=C\c3cc4c(=O)c5ccccc5sc4s3)C(=O)N2c2ccccc2)C(OC(C)=O)C(OC(C)=O)C1OC(C)=O` (centres undefined), the GI50 was 53.1 µM (inactive) in assay [1]; > 100 µM (inactive) in assay [2]; > 100 µM (inactive) in assay [3]; greater than 100 µM in assay [5]; > 100 µM (inactive) in assay [6]; > 100 µM (inactive) in assay [7]. In addition, the GI50 in assay [8] was > 100 µM (inactive); in assay [9], 58.2 µM (inactive); in assay [10] it was 50.9 µM (inactive); in [11], > 100 µM (inactive); in [12] it was 67.8 µM (inactive); in assay [13], 62.4 µM (inactive). The GI50 is 37.6 µM (inactive) in assay [14]; 55.1 µM (inactive) in [15]; > 100 µM (inactive) in assay [16]; 20.6 µM (inactive) in [17]; > 100 µM (inactive) in [18]; 83.2 µM (inactive) in assay [19].

Turning to `NC1CC(=O)c2ccccc21` (centres undefined), the GI50 in assay [1] is > 100 µM (inactive); in assay [2], > 100 µM (inactive); in assay [3], > 100 µM (inactive); in [4], > 100 µM (inactive); in [5], greater than 100 µM; in assay [6] it was > 100 µM (inactive). The GI50 in assay [7], in [8], in assay [9], in assay [10], in assay [11] and in assay [12] was > 100 µM (inactive) in each case. Moreover, the GI50 in assay [13], in assay [14], in [15], in assay [16], in assay [17] and in assay [18] was > 100 µM (inactive) in each case. The GI50 in [20] was > 100 µM (inactive).

For the compound `C#CC(=O)OCC#CCOC(=O)C#C`, the GI50 is 19 µM (inactive) in assay [2]; > 100 µM (inactive) in assay [3]; 15.3 µM (inactive) in [4]; 18.7 µM in [5]; 17.9 µM (inactive) in assay [6]; 23.7 µM (inactive) in [7]. Besides, the GI50 in assay [8] is 19.6 µM (inactive); in assay [9], 25.5 µM (inactive); in assay [10], 15.1 µM (inactive); in assay [11], 28.8 µM (inactive); in assay [12], 20 µM (inactive); in assay [14], 15.7 µM (inactive). The GI50 was 1.05 µM (active) in [15]; 17.9 µM (inactive) in [16]; 18.3 µM (inactive) in assay [18]; 23.4 µM (inactive) in assay [20]; > 100 µM (inactive) in assay [19].

As to `C[C@@H](c1ccccc1)N1C[C@@H](c2ccc3c(c2)OCO3)[C@@H]2C(=O)CCC[C@@H]21`, the GI50 in assay [1] is 64.1 µM (inactive); in assay [2] it was > 100 µM (inactive); in [3], 79.3 µM (inactive); in assay [5] it was 61.2 µM; in assay [6], 20.6 µM (inactive); in [7] it was 37.3 µM (inactive). In addition, the GI50 is 30.1 µM (inactive) in [8]; 63.8 µM (inactive) in assay [9]; 38.1 µM (inactive) in assay [10]; 67.8 µM (inactive) in [11]; > 100 µM (inactive) in [13]; 43.8 µM (inactive) in assay [14]. For the same compound, the GI50 in assay [15] is 69 µM (inactive); in [17] it was 30.3 µM (inactive); in assay [18], 35.2 µM (inactive); in assay [20], 19.5 µM (inactive); in [19], 54.5 µM (inactive).

For the origin of these results see ChEMBL document CHEMBL1201862, “PubChem BioAssay data set” (2004).
